According to patent US20100279941A1, “CD36 MODULATION AND USES THEREOF” (priority 2009, published 2010):
Numbered stars: 1 amine (or outer) side, 2 acyl side, 3 side chain; on linkers, the order of the positions; unused ones are H or OH. Square brackets hold non-standard residues; d marks the D form. Peptide text beside a SMILES is read from it. azaPhe = O=C(N(Cc1ccccc1)N[*:1])[*:2]; azaPro = O=C(N1CCCN1[*:1])[*:2]

Tests used:
Assay type in all cases: in vivo
[1] = tested on: CD36^+/+ and CD36^−/− mice; assay: Area at risk and infarct size after 30-min LCAL and 48 hours reperfusion (Evans blue/TTC)
Description: Animals. CD36^−/− mice were generated by targeted homologous recombination and backcrossed six times to C57BI/6. Wild-type control littermates (CD36^+/+) were bred from the same cross and were therefore of identical genetic background [Febbraio et al., 2000]. Male mice, aged 23 (±1) weeks, were used for experiments. They were fed standard chow (#5075, Charles Rivers, Saint-Constant, Québec, Canada) and water ad libitum, and housed singly during treatment periods (2 or 10 weeks). Daily pharmacological treatments with 300 μg/kg of EP 80317 or CP1A(IV) or vehicle (0.9% NaCl) were done by subcutaneous (s.c.) injections.
(§1) C57BU6 mice were bred in house. Male mice, aged 23 (±1) weeks, were used for experiments. They were fed standard chow (#5075, Charles Rivers, Saint-Constant, Québec, Canada) and water ad libitum, and housed singly during treatment periods (2 weeks). Daily pharmacological treatments with 300 μg/kg (289 nmol/kg) of EP 80317 or 289 nmol/kg of CP-3(IV), 289 nmol/kg of CP-AP-4 or vehicle (0.9% NaCl) were done by subcutaneous (s.c.) injections.
(§2) Experimental model of IHD: Transient left coronary artery ligation in vivo. Mice were subjected to a transient LCAL surgery as described before, with minor modifications [Tarnayski et al., 2004]. Mice were injected i.p. with buprenorphine (0.05 mg/kg) and placed in an induction chamber with inhalation anesthesia comprised of 3% isoflurane mixed with 100% oxygen. Mice were intubated with a blunt ended 20-gauge catheter into the trachea via the mouth and mechanically ventilated at a tidal volume of 7 ml/kg at 130 respirations/min with a MiniVent™ mouse ventilator (model 845, Harvard Apparatus, Saint-Laurent, QC, Canada). Anesthesia was maintained with 1.5-2% isoflurane and the animals were kept warm using electrical heating pads during the surgical procedure. The chest was opened by a horizontal incision through the skin and muscle layers at the third intercostal space exposing the left side of the heart. […] Visual blanching distal to the coronary occlusion confirmed myocardial ischaemia. Lidocaine (6 mg/kg) was administered i.p. just following occlusion and prior to reperfusion. After 30 minutes, the PE10 tubing was removed allowing reperfusion. The lungs were reinflated and the chest wound closed layer by layer before extubation. At 6 hours following reperfusion, mice were anesthetized (isoflurane), a blood sample withdrawn, and the heart arrested in diastole by an intravenous injection of 1 M KCl (0.5 mL). Hearts were immediately frozen at −80° C. unless otherwise stated.
Evaluation of area at risk and infarct size. Two days after reperfusion, the left anterior descending (LAD) coronary artery was re-occluded at the original site and the abdominal aorta was injected retrogradly with 5% Evans blue dye to delineate the AAR by the absence of dark blue staining. The left ventricle, including the interventricular septum, was dissected and cut into transverse 1-mm slices from the apex to the base, using an acrylic matrix (Alto Inc., Hatfield, Pa., USA). The slices were incubated in 1% triphenyltetrazolium chloride solution at 37° C. for 15 min and placed in 10% neutral buffered formalin for 12 hours. Each slice was weighed and photographed on both sides with a digital camera (Nikon, Coolpix™ 4500, Mississauga, Ontario, Canada). The total LV area, AAR and IA were determined for each side of a slice by planimetric analysis using Adobe CS3 Photoshop™ software (Ottawa, ON, Canada), and averaged. The infarct weight was determined as follows: [(A1×WT1)+(A2×WT2)+(A3×WT3)+(A4×WT4) . . . ] where A and WT are the infarct area and weight of the section, respectively. The AAR weight was calculated in a similar manner, but by subtracting the blue (viable) stained zone from the weight. The results are expressed in terms of % IA/AAR, IA/LV and AAR/LV.

C57BL/6 mice [2] = assay: Cardiac troponin I (cTnI) in plasma, ELISA; settings: 48 hours post-ischemia; 2 weeks 289 nmol/kg; compared to vehicle
Method: as §1
as §2, with “At 6 hours following reperfusion, mice were anesthetized (isoflurane), a blood sample withdrawn, and the heart arrested in diastole by an intravenous injection of 1 M KCl (0.5 mL).” left out
Cardiac troponin I (cTnI) concentrations in plasma. cTnI plasma levels were assayed using the High Sensitivity Mouse Cardiac Troponin-I ELISA Kit (Life Diagnostics, Inc., West Chester, Pa., Cat. No. 2010-1-HSP), according to the manufacturer's instructions.

C57BL/6 mice [3] = assay: Blood lactate after transient ischemia; settings: 6-hour reperfusion; 2 weeks 289 nmol/kg; P<0.05 compared to vehicle
Method: as §1, §2
Blood lactate. Blood lactate was determined using the Lactate Pro Analyser (FaCT Canada Consulting Ltd, Quesnel, BC, Canada), according to the manufacturer's instructions.

Compound	reduction of infarct area ([1]; 2-week pretreatment, same drug regimen (300 μg/kg/d), CD36^+/+ mice, 48 hours reperfusion) [%]	area-at-risk ([1]; mouse, in vivo)	reduction of IA/LV ratios ([1]; mouse, in vivo) [%]	reduction of cardiac troponin I (cTnI) levels in plasma (C57BL/6 mice [2]) [%]	reduction of lactate concentration in blood (C57BL/6 mice [3]) [%]	area-at-risk ([1]; CD36^+/+ (C57BL/6) mice, 289 nmol/kg 2 weeks, 48 hours reperfusion, mean (±SE))	reduction of IA/LV ratios ([1]; CD36^+/+ (C57BL/6) mice, 289 nmol/kg 2 weeks, 48 hours reperfusion, p<0.001 vs 0.9% NaCl) [%]
C[C@H](N)C(=O)NN(Cc1ccccc1)C(=O)N[C@@H](C)C(=O)N[C@@H](Cc1c[nH]c2ccccc12)C(=O)N[C@H](Cc1ccccc1)C(=O)N[C@@H](CCCCN)C(N)=O [CP1A(IV), Ala-AzaPhe-Ala-Trp-DPhe-Lys-NH2] (H-A[azaPhe]AW[dF]K-NH2)	49	–	–	–	–	–	–
C[C@H](N)C(=O)N[C@H](Cc1c[nH]c2ccccc12)C(=O)N[C@@H](C)C(=O)NN(Cc1ccccc1)C(=O)N[C@H](Cc1ccccc1)C(=O)N[C@@H](CCCCN)C(N)=O [CP-3(iv), Ala-D-Trp-Ala-AzaPhe-DPhe-Lys-NH2] (H-A[dW]A[azaPhe][dF]K-NH2)	–	52 (±3) %	56	42	27	–	–
NCCCC[C@H](NC(=O)[C@@H](Cc1ccccc1)NC(=O)[C@H](Cc1c[nH]c2ccccc12)NC(=O)N1CCCN1C(=O)[C@@H](Cc1c[nH]c2ccccc12)NC(=O)[C@@H](N)Cc1cnc[nH]1)C(N)=O [CP-AP-4, His-D-Trp-AzaPro-Trp-DPhe-Lys-NH2] (H-H[dW][azaPro]W[dF]K-NH2)	–	–	–	54	32	50 (±4) %	50
